Results published in paper PMC6119644 (Bioorganic & medicinal chemistry letters, 2018).

target: GOT1 (Homo sapiens, UniProt P17174); assay: MDH coupled GOT1 enzymatic assay; assay type: biochemical; conditions: MDH coupled GOT1 enzymatic assay
Sequence (P17174 whole entry): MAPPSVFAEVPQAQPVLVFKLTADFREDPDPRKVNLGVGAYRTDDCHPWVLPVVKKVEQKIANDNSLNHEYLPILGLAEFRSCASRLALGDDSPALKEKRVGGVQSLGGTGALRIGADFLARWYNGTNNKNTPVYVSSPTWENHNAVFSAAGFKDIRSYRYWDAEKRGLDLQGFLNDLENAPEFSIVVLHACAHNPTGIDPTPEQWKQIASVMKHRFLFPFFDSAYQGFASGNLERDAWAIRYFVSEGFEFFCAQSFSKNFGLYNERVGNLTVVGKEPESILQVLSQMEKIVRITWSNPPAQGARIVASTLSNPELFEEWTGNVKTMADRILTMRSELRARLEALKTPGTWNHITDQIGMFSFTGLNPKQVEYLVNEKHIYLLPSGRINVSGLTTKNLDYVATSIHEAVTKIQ

GOT1 inhibition activity (in words)	SMILES
lack of observed activity	O=C(Nc1ccccc1)N1CCN(c2cccc3[nH]ncc23)CC1 [Compound 1j]
lack of observed activity	O=C(Nc1ccccc1)N1CCN(c2cccc3ncccc23)CC1 [Compound 1k]
no significant activity	O=C(NCCc1c[nH]c2ccccc12)Nc1ccccc1 [Compound 3a]

same assay, conditions: relative to 1a; GOT1 inhibition

enhancement in potency	SMILES
~ 10 fold	O=C(Nc1ccc(Cl)cc1)N1CCN(c2cccc3[nH]ccc23)CC1 [Compound 2c]
~ 10 fold	O=C(Nc1ccc(C(F)(F)F)cc1)N1CCN(c2cccc3[nH]ccc23)CC1 [Compound 2d]
~ 10 fold	O=C(Nc1cccc(C(F)(F)F)c1)N1CCN(c2cccc3[nH]ccc23)CC1 [Compound 2g]
